These results are taken from PubChem BioAssay (NCI).

What all share (assay): NCI-60 cell line screen, 48 h
Assay [1] relates to OVCAR-3 ovarian.
In assay [2] the test system is EKVX NSCLC.
Assay [3] has as its system IGROV1 ovarian.
The subject of assay [4] is HL-60(TB) leukemia.
Assay [5] deals with HCT-116 colon.
Assay [6] has as its system RPMI-8226 leukemia.
The test system of assay [7] is MDA-MB-435.
The test system of assay [8] is HT29 colon.
The test system of assay [9] is UO-31 renal.
The subject of assay [10] is HOP-92 NSCLC.

Structures are written as SMILES.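 These data come from cells grown in 96-well plates and exposed to compound for 48 hours at five concentrations. GI50 marks 50% less growth. TGI is the concentration that stops growth completely.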 Where only a bound is given, the exact number is not on record here.

Regarding `COc1ccc(-n2nc(C)c3c(Nc4ccc(NC(=O)Nc5ccc(Cl)c(C(F)(F)F)c5)cc4)ncnc32)cc1`, the GI50 in assay [1] is 1.98 µM; in assay [2], 2.19 µM; in assay [3], 2.23 µM; in [4] it was 2.1 µM; in assay [5], 1.21 µM; in assay [6], 1.34 µM. Moreover, the GI50 in assay [7] is 1.92 µM; in assay [8], 1.8 µM; in [9], 1.7 µM; in assay [10] it was 1.81 µM. The TGI is 5.91 µM in assay [1]; 5.55 µM in assay [2]; 7.23 µM in [3]; 4.95 µM in assay [4]; 3.35 µM in assay [5]; 4.21 µM in assay [6]. In addition, the TGI in [7] is 4.17 µM; in assay [8], 4.17 µM; in [9] it was 3.69 µM; in assay [10], 5.2 µM.

On to `Cc1cc(C)nc(NS(=O)(=O)c2ccc(NC(=O)c3cccc4c(NNc5ccc(S(=O)(=O)N=C(N)N)cc5)c5ccccc5nc34)cc2)n1`, for which the TGI in assay [1], in assay [2], in [3], in [4], in assay [5] and in assay [6] was over 50 µM throughout. Moreover, the TGI in assay [7], in assay [8], in assay [9] and in assay [10] was over 50 µM in each case.

As to `CN1N=C(c2ccncc2)OC1c1ccccc1F` (stereo unspecified), the TGI in [1], in assay [2], in [3], in assay [4], in assay [5] and in assay [6] was over 100 µM throughout. Moreover, the TGI in assay [7], in [8], in [9] and in assay [10] was over 100 µM each time.

Consider `COc1cc(C(O)c2ccc3c(c2)OCO3)cc(OC)c1OC` (stereo unspecified), for which the TGI in assay [1], in assay [2], in assay [3], in assay [4], in assay [5] and in assay [6] was over 100 µM throughout. Also, the TGI in assay [7], in assay [8], in [9] and in [10] was over 100 µM each time.

`CCN1C(=O)C(=C/C=C/c2ccc(N(CC)CC)cc2)C(=O)N(CC)C1=S`: the TGI was 54.9 µM in assay [1]; over 100 µM in assay [2]; over 100 µM in assay [3]; over 100 µM in assay [4]; over 100 µM in assay [5]; over 100 µM in [6]. Besides, the TGI in assay [7], in [8], in assay [9] and in assay [10] was over 100 µM each time.

With `O=C(CC(C(=O)c1ccco1)c1ccco1)c1ccco1` (stereo unspecified), the TGI in assay [1], in [2], in [3], in [4], in assay [5] and in assay [6] was over 100 µM each time. Moreover, the TGI was over 100 µM in assay [7], over 100 µM in assay [8], 92.5 µM in [9] and over 100 µM in [10].

For `CN(C)c1ccc(Cc2cc3c(O)ccc(O)c3cc(Cc3ccc(N(C)C)cc3)c2=O)cc1`, the TGI was 54.2 µM in [1]; 44.2 µM in assay [2]; 40.2 µM in [3]; over 37.6 µM in assay [4]; 40.8 µM in [5]; over 84.9 µM in [6]. In addition, the TGI came to 36.9 µM in [7], 37.1 µM in assay [8], 27.7 µM in assay [9] and 14.5 µM in assay [10].

Take `O=[N+]([O-])/C(Cl)=C(\NCCN/C(C(Cl)=C(Cl)Cl)=C(/Cl)[N+](=O)[O-])C(Cl)=C(Cl)Cl`: the TGI in assay [1] was over 100 µM; in assay [2] it was over 100 µM; in [3], over 100 µM; in assay [4], 87.5 µM; in [5], over 100 µM; in assay [6] it was 65.8 µM. Further, the values for the TGI in assay [7], in assay [9] and in [10] were over 100 µM, over 100 µM and 53.9 µM, respectively.

`CCNc1ncnc2sc(SCc3ccccc3)nc12`: the TGI in assay [1] was over 100 µM; in assay [2], over 100 µM; in [3] it was over 100 µM; in assay [4], 56.4 µM; in [5] it was over 100 µM; in assay [6] it was over 100 µM. The TGI in [7] is over 100 µM; in assay [8] it was over 100 µM; in assay [9], over 100 µM; in assay [10], 81 µM.

As to `Cc1c(-c2ccccc2)[nH]n(C2=NCCN2)c1=O`, the TGI in assay [1], in assay [2], in assay [3], in assay [4], in assay [5] and in assay [6] was over 100 µM in each case. The TGI in assay [7], in assay [8], in assay [9] and in [10] was over 100 µM each time.

Turning to `COc1ccc(Oc2cnn(C(Br)(Br)C(C)=O)c(=O)c2Br)cc1`, the TGI amounted to 13.6 µM in assay [1]; 36.1 µM in assay [2]; 42.8 µM in assay [3]; 10.9 µM in [4]; 19.2 µM in assay [5]; 11.8 µM in assay [6]. In addition, the TGI in assay [7] was 23.4 µM; in assay [8], 48.4 µM; in [9] it was 26.8 µM; in assay [10], 29.4 µM.

As to `O=[N+]([O-])c1cccc2c(N=Nc3ccc4ccccc4c3O)c(O)cc(S(=O)(=O)O)c12`, the TGI in assay [1] was over 100 µM; in assay [2] it was over 100 µM; in assay [3], over 100 µM; in assay [4] it was 91.5 µM; in assay [5] it was over 100 µM; in assay [6] it was over 100 µM. The TGI was over 100 µM in assay [7], over 100 µM in [8], 56.1 µM in [9] and over 100 µM in assay [10].

Take `CCOC(=O)c1sc2ncnc(N)c2c1C`: the TGI in [1], in assay [2], in assay [3], in [4], in assay [5] and in [6] was over 100 µM throughout. Also, the TGI is over 100 µM in assay [7], over 100 µM in assay [8], over 100 µM in assay [9] and 92.2 µM in assay [10].

For `Cc1cc(O)c(-c2cc(O)c(C)cc2O)cc1O`, the TGI in assay [1] amounted to 5.12 µM; in assay [2], 28.7 µM; in assay [3], 25.9 µM; in assay [4] it was 3.88 µM; in assay [5] it was 21.7 µM; in [6], 4.07 µM. For the same compound, the TGI was 9.32 µM in assay [7], over 53.1 µM in assay [8], 5.4 µM in assay [9] and 6.22 µM in assay [10].

For the compound `CC(=O)n1nc(-c2ccccc2)n(/N=C/c2ccc([N+](=O)[O-])o2)c1=O`, the TGI in [1] was 17 µM; in assay [2] it was over 49.1 µM; in assay [3], 37.4 µM; in [4], 9.73 µM; in assay [5] it was 3.71 µM; in [6], 28.2 µM. The TGI is 12.1 µM in [7], 21.8 µM in assay [8], 4.17 µM in assay [9] and 35.9 µM in [10].

In the case of `O=[N+]([O-])c1cc(Cl)ccc1Sc1ccccc1`, the TGI in assay [1], in [2], in [3], in assay [4], in [5] and in assay [6] was over 100 µM each time. The TGI in assay [7], in assay [8], in assay [9] and in [10] was over 100 µM in each case.

With `Cc1cc(NS(=O)(=O)c2ccc(NC(NC(=O)C(C(F)(F)F)C(F)(F)F)(C(F)(F)F)C(F)(F)F)cc2)no1`, the TGI in assay [1], in [2], in assay [3], in [4], in [5] and in [6] was over 100 µM in each case. Besides, the TGI in assay [7], in assay [8], in assay [9] and in [10] was over 100 µM in each case.

In the case of `Nc1nc(Nc2ccccc2)sc1C(=O)c1ccco1`, the TGI in assay [1] worked out at 31.5 µM; in assay [2], 38.7 µM; in assay [3], 60.7 µM; in assay [4], 36.1 µM; in assay [5] it was 36.7 µM; in assay [6], 42.2 µM. The TGI in assay [7] was determined as 31.5 µM; in assay [8] it was 41.9 µM; in assay [9], 30.2 µM; in assay [10], 82.6 µM.

On to `C[C@H]1[C@H](C)CC[C@]2(C(=O)OC3OC(CO)C(O)C(O)C3O)CC[C@]3(C)C(=CC[C@@H]4[C@@]5(C)C[C@H]6OC(=O)c7cc(O)c(O)c(O)c7-c7c(cc(O)c(O)c7O)C(=O)O[C@@H]6C(CO)(CO)[C@@H]5CC[C@]43C)[C@H]12` (stereo partly specified), for which the TGI in [1] is over 71.5 µM; in assay [2] it was over 100 µM; in assay [3] it was over 100 µM; in [4], over 100 µM; in [5], over 100 µM; in assay [6], over 100 µM. In addition, the TGI in assay [7] was 36.2 µM; in [8], over 56 µM; in [9], over 100 µM; in [10], over 100 µM.

In the case of `Clc1nncc2sc(-c3ccccc3)nc12`, the TGI in assay [1] is 33.8 µM; in [2], 12.5 µM; in [3], 40.3 µM; in assay [4] it was 51.2 µM; in [5], 48.9 µM; in assay [6], over 100 µM. The TGI turned out to be 49.6 µM in assay [7], 68.5 µM in assay [8], 55 µM in [9] and 24 µM in assay [10].

For `CCOC(=O)NC(Nc1c(F)c(F)c(F)c(F)c1F)(C(F)(F)F)C(F)(F)F`, the TGI in [1], in assay [2], in [3], in assay [4], in assay [5] and in assay [6] was over 100 µM each time. Moreover, the TGI in assay [7], in [9] and in [10] was over 100 µM in each case.

As for `O=C(CC(=O)Nc1ccccc1)NNC(c1cc(N=Nc2ccc(Br)cc2)ccc1O)P(O)O` (stereo unspecified), the TGI is over 10 µM in assay [1]; over 10 µM in [3]; 1.12 µM in [4]; 5.64 µM in [5]; over 10 µM in [6]; over 10 µM in assay [7]. The TGI in [8], in assay [9] and in assay [10] was over 10 µM throughout.

As for `CCOC(=O)c1c(SCCN2CCOCC2)n(-c2ccccc2)c(=S)n(-c2ccccc2)c1=O`, the TGI in assay [1] was over 100 µM; in assay [3], over 100 µM; in [4], 49.2 µM; in [6], 94.1 µM; in [7], over 100 µM; in [8], 34.9 µM. The TGI in assay [9] and in [10] was over 100 µM throughout.

Turning to `COP(=O)(OC)C(Nc1ccc(Cc2ccc(NC(c3ccco3)P(=O)(OC)OC)cc2)cc1)c1ccco1` (stereo unspecified), the TGI was over 100 µM in assay [1]; 94.4 µM in assay [2]; over 100 µM in assay [3]; over 100 µM in [4]; over 100 µM in [5]; over 100 µM in [7]. The figures for the TGI in assay [8], in assay [9] and in assay [10] were over 100 µM, over 100 µM and 35.1 µM, respectively.

For `CCN(CCCl)c1cc(CN(C)C)cc(NC(=O)c2ccc(C(=O)Nc3cccc(CN(C)C)c3)cc2)c1`, the TGI is 10 µM in assay [3]; 0.444 µM in assay [4]; 14.4 µM in assay [5]; 8.73 µM in [6]; 0.665 µM in assay [7]; 6.87 µM in [8]. Further, the figures for the TGI in assay [9] and in assay [10] were 76.3 µM and 3.66 µM, respectively.

On to `Clc1ccc(/C(=C\c2ccccc2)Cn2ccnc2)cc1`, for which the TGI is 68.4 µM in [2]; over 100 µM in assay [3]; 45.5 µM in assay [4]; 29.1 µM in [5]; 73.7 µM in [6]; 34.6 µM in [7]. Moreover, the TGI is 30.1 µM in assay [8], 32.4 µM in assay [9] and 39.4 µM in [10].
